Experimental data taken from ChEMBL document CHEMBL3885881, “DrugMatrix”.

Species on record: Rattus norvegicus
Assay: DrugMatrix - Regimen: Daily Repeat
Assay type: toxicity, organism-based, Sprague-Dawley
Parameters: regimen Daily Repeat, gender Male, age 6-8 weeks
Conditions: in vivo, po, route oral GAVAGE, vehicle .5 % CMC; for ABSOLUTE BASOPHIL / ABSOLUTE EOSINOPHIL / ABSOLUTE MONOCYTE / ABSOLUTE SEGMENTED NEUTROPHIL / BASOPHIL / EOSINOPHIL / ERYTHROCYTE COUNT / HEMATOCRIT / HEMOGLOBIN / LEUKOCYTE COUNT / LYMPHOCYTE / MEAN CORPUSCULAR HEMOGLOBIN / MEAN CORPUSCULAR HEMOGLOBIN CONCENTRATION / MEAN CORPUSCULAR VOLUME / MONOCYTE / NEUTROPHIL / NUCLEATED RED BLOOD CELLS / PLATELET COUNT: tissue Blood; for ALANINE AMINOTRANSFERASE / ALBUMIN / ALKALINE PHOSPHATASE / ASPARTATE AMINOTRANSFERASE / BLOOD UREA NITROGEN / CARBON DIOXIDE / CHLORIDE / CHOLESTEROL / CREATINE PHOSPHOKINASE / CREATININE / GLUCOSE / LACTATE DEHYDROGENASE / LIPASE / PHOSPHORUS / POTASSIUM / SODIUM / TOTAL BILIRUBIN / TOTAL PROTEIN / URIC ACID: tissue Plasma
[1] = 0 mg/kg, 72 h, dose level Control, time 3 day
[2] = 0 mg/kg, 120 h, dose level Control, time 5 day
[3] = […], 72 h, dose 6.5 mg/Kg, dose level Low, time 3 day
[4] = […], 120 h, dose 6.5 mg/Kg, dose level Low, time 5 day

## CN(C)CCOC(c1ccccc1)c1ccccc1.Cn1c(=O)c2[nH]c(Cl)nc2n(C)c1=O [DIMENHYDRINATE]
[1]
  ABSOLUTE BASOPHIL: 0 CELLS/uL
  ABSOLUTE EOSINOPHIL: 32.5 CELLS/uL
  ABSOLUTE MONOCYTE: 474 CELLS/uL
  ABSOLUTE SEGMENTED NEUTROPHIL: 1932.67 CELLS/uL
  BASOPHIL: 0%
  EOSINOPHIL: 0.17%
  ERYTHROCYTE COUNT: 5.45 x10E6/uL
  HEMATOCRIT: 34.32%
  HEMOGLOBIN: 13.82 G/DL
  LEUKOCYTE COUNT: 15.93 x10E3/uL
  LYMPHOCYTE: 84.83%
  MEAN CORPUSCULAR HEMOGLOBIN: 25.38 pg
  MEAN CORPUSCULAR HEMOGLOBIN CONCENTRATION: 40.27 G/DL
  MEAN CORPUSCULAR VOLUME: 63.05 fL
  MONOCYTE: 3%
  NEUTROPHIL: 12%
  NUCLEATED RED BLOOD CELLS: 0.67 /100WBC
  PLATELET COUNT: 1188.5 x10E3/uL
  ALANINE AMINOTRANSFERASE: 54.83 u/L
  ALBUMIN: 4.22 G/DL
  ALKALINE PHOSPHATASE: 427.67 u/L
  ASPARTATE AMINOTRANSFERASE: 86.5 u/L
  BLOOD UREA NITROGEN: 15.33 mg/dL
  CARBON DIOXIDE: 24.83 mmol/L
  CHLORIDE: 102.33 MEQ/L
  CHOLESTEROL: 71.67 mg/dL
  CREATINE PHOSPHOKINASE: 442.5 u/L
  CREATININE: 0.19 mg/dL
  GLUCOSE: 160.67 mg/dL
  LACTATE DEHYDROGENASE: 236.5 u/L
  LIPASE: 9 u/L
  PHOSPHORUS: 11.97 mg/dL
  POTASSIUM: 6.2 MEQ/L
  SODIUM: 142.85 MEQ/L
  TOTAL BILIRUBIN: 0.2 mg/dL
  TOTAL PROTEIN: 5.8 G/DL
  URIC ACID: 1.3 mg/dL
[2]
  ABSOLUTE BASOPHIL: 0 CELLS/uL
  ABSOLUTE EOSINOPHIL: 114.5 CELLS/uL
  ABSOLUTE MONOCYTE: 173 CELLS/uL
  ABSOLUTE SEGMENTED NEUTROPHIL: 1048.5 CELLS/uL
  BASOPHIL: 0%
  EOSINOPHIL: 0.67%
  ERYTHROCYTE COUNT: 5.66 x10E6/uL
  HEMATOCRIT: 35.52%
  HEMOGLOBIN: 14.27 G/DL
  LEUKOCYTE COUNT: 15.95 x10E3/uL
  LYMPHOCYTE: 91.33%
  MEAN CORPUSCULAR HEMOGLOBIN: 25.23 pg
  MEAN CORPUSCULAR HEMOGLOBIN CONCENTRATION: 40.2 G/DL
  MEAN CORPUSCULAR VOLUME: 62.7 fL
  MONOCYTE: 1.17%
  NEUTROPHIL: 6.83%
  NUCLEATED RED BLOOD CELLS: 0.33 /100WBC
  PLATELET COUNT: 1229 x10E3/uL
  ALANINE AMINOTRANSFERASE: 58.67 u/L
  ALBUMIN: 4.32 G/DL
  ALKALINE PHOSPHATASE: 382.5 u/L
  ASPARTATE AMINOTRANSFERASE: 81.67 u/L
  BLOOD UREA NITROGEN: 17.67 mg/dL
  CARBON DIOXIDE: 27.17 mmol/L
  CHLORIDE: 102.33 MEQ/L
  CHOLESTEROL: 63.67 mg/dL
  CREATINE PHOSPHOKINASE: 227.67 u/L
  CREATININE: 0.23 mg/dL
  GLUCOSE: 155.33 mg/dL
  LACTATE DEHYDROGENASE: 146.5 u/L
  LIPASE: 10.67 u/L
  PHOSPHORUS: 11.93 mg/dL
  POTASSIUM: 6.85 MEQ/L
  SODIUM: 143.95 MEQ/L
  TOTAL BILIRUBIN: 0.18 mg/dL
  TOTAL PROTEIN: 6.02 G/DL
  URIC ACID: 1.63 mg/dL
[3]
  ABSOLUTE BASOPHIL: 0 CELLS/uL
  ABSOLUTE EOSINOPHIL: 46.67 CELLS/uL
  ABSOLUTE MONOCYTE: 474 CELLS/uL
  ABSOLUTE SEGMENTED NEUTROPHIL: 1911.67 CELLS/uL
  BASOPHIL: 0%
  EOSINOPHIL: 0.33%
  ERYTHROCYTE COUNT: 5.67 x10E6/uL
  HEMATOCRIT: 35.5%
  HEMOGLOBIN: 13.93 G/DL
  LEUKOCYTE COUNT: 14.93 x10E3/uL
  LYMPHOCYTE: 84%
  MEAN CORPUSCULAR HEMOGLOBIN: 24.57 pg
  MEAN CORPUSCULAR HEMOGLOBIN CONCENTRATION: 39.27 G/DL
  MEAN CORPUSCULAR VOLUME: 62.6 fL
  MONOCYTE: 3%
  NEUTROPHIL: 12.67%
  NUCLEATED RED BLOOD CELLS: 0 /100WBC
  PLATELET COUNT: 1199.33 x10E3/uL
  ALANINE AMINOTRANSFERASE: 47.67 u/L
  ALBUMIN: 4.03 G/DL
  ALKALINE PHOSPHATASE: 343 u/L
  ASPARTATE AMINOTRANSFERASE: 87 u/L
  BLOOD UREA NITROGEN: 15 mg/dL
  CARBON DIOXIDE: 25.67 mmol/L
  CHLORIDE: 102 MEQ/L
  CHOLESTEROL: 75.33 mg/dL
  CREATINE PHOSPHOKINASE: 266 u/L
  CREATININE: 0.14 mg/dL
  GLUCOSE: 167.33 mg/dL
  LACTATE DEHYDROGENASE: 166 u/L
  LIPASE: 9.33 u/L
  PHOSPHORUS: 12.2 mg/dL
  POTASSIUM: 6.53 MEQ/L
  SODIUM: 144.67 MEQ/L
  TOTAL BILIRUBIN: 0.2 mg/dL
  TOTAL PROTEIN: 5.6 G/DL
  URIC ACID: 1.57 mg/dL
[4]
  ABSOLUTE BASOPHIL: 0 CELLS/uL
  ABSOLUTE EOSINOPHIL: 108.67 CELLS/uL
  ABSOLUTE MONOCYTE: 85.67 CELLS/uL
  ABSOLUTE SEGMENTED NEUTROPHIL: 1586.67 CELLS/uL
  BASOPHIL: 0%
  EOSINOPHIL: 0.67%
  ERYTHROCYTE COUNT: 5.47 x10E6/uL
  HEMATOCRIT: 34.93%
  HEMOGLOBIN: 14.13 G/DL
  LEUKOCYTE COUNT: 19.43 x10E3/uL
  LYMPHOCYTE: 91.67%
  MEAN CORPUSCULAR HEMOGLOBIN: 25.8 pg
  MEAN CORPUSCULAR HEMOGLOBIN CONCENTRATION: 40.47 G/DL
  MEAN CORPUSCULAR VOLUME: 63.8 fL
  MONOCYTE: 0.33%
  NEUTROPHIL: 7.33%
  NUCLEATED RED BLOOD CELLS: 0 /100WBC
  PLATELET COUNT: 1543 x10E3/uL
  ALANINE AMINOTRANSFERASE: 48.67 u/L
  ALBUMIN: 4.17 G/DL
  ALKALINE PHOSPHATASE: 266.33 u/L
  ASPARTATE AMINOTRANSFERASE: 77.33 u/L
  BLOOD UREA NITROGEN: 18.67 mg/dL
  CARBON DIOXIDE: 25 mmol/L
  CHLORIDE: 96 MEQ/L
  CHOLESTEROL: 71.33 mg/dL
  CREATINE PHOSPHOKINASE: 225.67 u/L
  CREATININE: 0.2 mg/dL
  GLUCOSE: 159 mg/dL
  LACTATE DEHYDROGENASE: 96.67 u/L
  LIPASE: 10 u/L
  PHOSPHORUS: 13.07 mg/dL
  POTASSIUM: 6.62 MEQ/L
  SODIUM: 135.4 MEQ/L
  TOTAL BILIRUBIN: 0.13 mg/dL
  TOTAL PROTEIN: 5.8 G/DL
  URIC ACID: 2.27 mg/dL
